From publication PMC7461649 (Journal of medicinal chemistry, 2020)
Read-outs that look alike come from different tables or passages of the source. Blank lines part the entries; values can stand above or below the compound they belong to.

Tests used:
TnmH [1] = target: T1, TnmH (Streptomyces sp. CB03234, UniProt A0A125SA05); experiment: biochemical
TnmH [2] = target: T1, TnmH; settings: saturating SAM (1 mM)
[3] = target: TnmH (Streptomyces sp. CB03234); experiment: SEC

Compound: C[S+](CC[C@H](N)C(=O)O)C[C@H]1O[C@@H](n2cnc3c(N)ncnc32)[C@H](O)[C@@H]1O (stereo partly shown) [SAM]
Km (TnmH [1]): 62 ± 4.8 µM

Compound: COC(=O)C(O)C(C)(O)[C@@]12OC13c1cc(O)c4c(c1N[C@H]2C#C/C=C\C#C[C@H]3O)C(=O)c1c(ccc(O)c1O)C4=O (stereo partly shown) [compound 11, TNM C]
Km (TnmH [2]; 11 varied 7.8 to 500 μM, C-7 hydroxyl methylation to 13): 31.1 ± 4.1 µM

Compound: TNM F [compound 10]
Km (TnmH [2]; 10 varied 7.8 to 500 μM, C-7 hydroxyl methylation to 12): 11.7 ± 1.2 µM

stoichiometry N [3]: 2
Compound: TnmH (enzyme)
